Experimental findings from patent US6294672A, “Indole and azaindole inhibitors of Fructose-1,6-biphosphatase” (Metabasis Therapeutics, Inc., priority 2000, dated 2001) are described below.

Where two headings read alike, the source gives them in different places.

Data set [1] concerns glucose production from lactate/pyruvate in isolated rat hepatocytes. Briefly: Inhibition of Gluconeogenesis in Rat Hepatocytes. Format: cell-based. The method, then: Hepatocytes were prepared from overnight fasted Sprague-Dawley rats (250-300 g) according to the procedure of Berry and Friend (Berry, M. N., Friend, D. S., J. Cell. Biol. 1969, 43, 506-520) as modified by Groen (Groen, A. K., Sips, H. J., Vervoorn, R. C., Tager, J. M., Eur. J. Biochem. 1982, 122, 87-93). Hepatocytes (75 mg wet weight/mL) were incubated in 1 mL Krebs-bicarbonate buffer containing 10 mM Lactate, 1 mM pyruvate, 1 mg/mL BSA, and test compound concentrations from 1 to 500 μM. Incubations were carried out in a 95% oxygen, 5% carbon dioxide atmosphere in closed, 50-mL Falcon tubes submerged in a rapidly shaking water bath (37° C.). After 1 hour, an aliquot (0.25 mL) was removed, transferred to an Eppendorf tube and centrifuged. 50 μL of supernatant was then assayed for glucose content using a Sigma Glucose Oxidase kit as per the manufacturer's instructions.

The target of data set [2] is T1, human liver FBPase (hlFBPase) (Homo sapiens, UniProt P09467).
T1 construct: made in house; host or cells: E. coli BL21 (transformed strain from Dr. M. R. El-Maghrabi, SUNY Stony Brook)
T1 sequence (P09467 2-338 limits assumed): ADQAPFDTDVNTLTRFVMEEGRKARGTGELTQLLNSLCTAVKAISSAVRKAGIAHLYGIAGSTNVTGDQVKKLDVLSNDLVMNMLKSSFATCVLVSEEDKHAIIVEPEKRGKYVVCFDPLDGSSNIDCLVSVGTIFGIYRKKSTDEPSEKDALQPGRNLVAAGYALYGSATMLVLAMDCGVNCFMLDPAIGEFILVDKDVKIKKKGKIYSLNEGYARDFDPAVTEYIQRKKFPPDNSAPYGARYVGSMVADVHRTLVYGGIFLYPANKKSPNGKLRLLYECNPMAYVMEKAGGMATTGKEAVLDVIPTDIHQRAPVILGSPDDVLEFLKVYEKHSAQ
Briefly: Inhibition of Human Liver FBPase. Format: biochemical. The protocol:
(§1) Enzymatic activity was measured spectrophotometrically in reactions that coupled the formation of product (fructose 6-phosphate) to the reduction of dimethylthiazoldiphenyltetrazolium bromide (MTT) via NADP and phenazine methosulfate (PMS), using phosphoglucose isomerase and glucose 6-phosphate dehydrogenase as the coupling enzymes. Reaction mixtures (200 μL) were made up in 96-well microtitre plates, and consisted of 50 mM Tris-HCl, pH 7.4, 100 mM KCl, 5 mM EGTA, 2 mM MgCl2, 0.2 mM NADP, 1 mg/mL BSA, 1 mM MTT, 0.6 mM PMS, 1 unit/mL phosphoglucose isomerase, 2 units/mL glucose 6-phosphate dehydrogenase, and 0.150 mM substrate (fructose 1,6-bisphosphate). Inhibitor concentrations were varied from 0.01 μM to 10 μM. Reactions were started by the addition of 0.002 units of pure hlFBPase and were monitored for 7 minutes at 590 nm in a Molecular Devices Plate Reader (37° C.).

Another data set deals with T2, rat liver FBPase (Rattus norvegicus, UniProt P19112).
T2 construct: made in house; host or cells: E. coli BL21 (transformed strain from Dr. M. R. El-Maghrabi, SUNY Stony Brook)
T2 sequence (P19112 2-363 limits assumed): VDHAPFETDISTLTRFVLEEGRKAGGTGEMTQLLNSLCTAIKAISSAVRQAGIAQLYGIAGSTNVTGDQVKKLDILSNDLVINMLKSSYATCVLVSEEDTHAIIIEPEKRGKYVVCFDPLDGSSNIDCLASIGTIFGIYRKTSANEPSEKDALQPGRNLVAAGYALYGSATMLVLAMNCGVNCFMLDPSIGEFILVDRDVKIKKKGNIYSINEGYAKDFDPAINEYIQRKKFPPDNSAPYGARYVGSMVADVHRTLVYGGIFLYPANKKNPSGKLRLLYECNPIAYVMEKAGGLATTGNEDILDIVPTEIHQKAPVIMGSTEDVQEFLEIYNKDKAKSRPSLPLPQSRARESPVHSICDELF
Briefly: In vitro Inhibition of Rat Liver FBPase. As to conditions: assayed as for human liver FBPase. Format: biochemical. The method, then: as §1, with “E. coli strain BL21 transformed with a human liver FBPase-encoding plasmid was obtained from Dr. M. R. El-Maghrabi at the State University of New York at Stony Brook. hIFBPase was typically purified from 10 liters of E. coli culture as described (M. Gidh-Jain et al., The Journal of Biological Chemistry 1994, 269, 27732-27738). Enzymatic” for “Enzymatic”
(§2) E. coli strain BL21 transformed with a rat liver FBPase-encoding plasmid is obtained from Dr. M. R. El-Maghrabi at the State University of New York at Stony Brook, and purified as described (El-Maghrabi, M. R., and Pilkis, S. J. Biochem. Biophys. Res. Commun. 1991, 176, 137-144). Mouse liver FBPase is obtained by homogenizing freshly isolated mouse liver in 100 mM Tris-HCl buffer, pH 7.4, containing 1 mM EGTA, and 10% glycerol. The homogenate is clarified by centrifugation, and the 45-75% ammonium sulfate fraction prepared. This fraction is redissolved in the homogenization buffer and desalted on a PD-10 gel filtration column (Biorad) eluted with same. This partially purified fraction is used for enzyme assays. Both rat liver and mouse liver FBPase are assayed as described for human liver FBPase. Generally, as reflected by the higher IC50 values, the rat and mouse liver enzymes are less sensitive to inhibition by the compounds tested than the human liver enzyme.

The target in another data set is T3, Mouse liver FBPase (Mus musculus, UniProt Q9QXD6).
T3 construct: Mouse liver FBPase is obtained by homogenizing freshly isolated mouse liver; from tissue; host or cells: freshly isolated mouse liver; 45-75% ammonium sulfate fraction, desalted
T3 sequence (Q9QXD6 2-338 limits assumed): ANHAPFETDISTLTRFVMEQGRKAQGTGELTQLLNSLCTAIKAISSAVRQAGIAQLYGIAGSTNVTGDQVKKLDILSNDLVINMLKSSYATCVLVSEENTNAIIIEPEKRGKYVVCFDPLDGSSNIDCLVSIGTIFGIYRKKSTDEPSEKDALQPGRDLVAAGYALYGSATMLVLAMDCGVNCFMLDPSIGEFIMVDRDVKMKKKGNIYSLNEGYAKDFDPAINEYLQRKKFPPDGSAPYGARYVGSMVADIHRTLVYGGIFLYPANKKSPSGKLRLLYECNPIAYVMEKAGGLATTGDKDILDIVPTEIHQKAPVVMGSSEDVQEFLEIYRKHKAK
Briefly: In vitro Inhibition of Mouse Liver FBPase. Format: biochemical. The settings on record: partially purified mouse liver fraction, assayed as for human liver FBPase. The method, then:
as §1, with “E. coli strain BL21 transformed with a human liver FBPase-encoding plasmid was obtained from Dr. M. R. El-Maghrabi at the State University of New York at Stony Brook. hIFBPase was typically purified from 10 liters of E. coli culture as described (M. Gidh-Jain et al., The Journal of Biological Chemistry 1994, 269, 27732-27738). Enzymatic” for “Enzymatic”
as §2

The mark [3] stands for this setting: Rattus norvegicus, Hepatocyte, 1 hour.
Setting [4] is: 0.150 mM fructose 1,6-bisphosphate, pH 7.4, 37° C., read-out: HL FBPase IC50.

For the molecule `CC(C)Cn1c(-c2ccc(P(=O)(O)O)o2)cc2c(N)cccc21` [Compound 9.1, N^1-isobutyl-4-amino-2-(2-(5-phosphone)furanyl)indole], the “dose dependent inhibition of glucose production in rat hepatocytes (FIG. 3)” value in data set [1] was “inhibit glucose production in a dose dependent manner”. In data set [1] (setting [3]), at 500 µM the inhibition was 57%. In data set [2] (setting [4]), the IC50 came out at 32.5 µM.

For `O=P(O)(O)COCc1nc2ccccn2c1-c1ccccc1` [Compound 11.3, 9-aza-3-phenyl-2-phosphono-methoxymethylindole], the IC50 in data set [2] (setting [4]) was found to be 10 µM.

As for `Cc1cccn2c(CC(C)C)c(-c3ccc(P(=O)(O)O)o3)nc12` [Compound 14.4, 9-Aza-3-isobutyl-7-methyl-2-(2-(5-phosphono)furanyl)indole], the values for the IC50 (against rat liver FBPase; at Mouse liver FBPase; in data set [2] (setting [4])) were more than 25 µM, more than 30 µM and 1.6 µM, respectively.

On to `O=P(O)(O)c1ccc(-c2[nH]c3ccccc3c2Br)o1` [Compound 7.1, 2-(2-(5-phosphono)furanyl)-3-bromoindole], for which the IC50 was more than 20 µM on rat liver FBPase, more than 20 µM against Mouse liver FBPase and 8.67 µM in data set [2] (setting [4]). For the same molecule, in data set [1] (setting [3]), testing at 500 µM gave an inhibition of 45.4%.

In the case of `O=C(NCP(=O)(O)O)c1cn2ccccc2n1` [Compound 12.1, 9-aza-2-phosphonomethylaminocarbonylindole], the IC50 in data set [2] (setting [4]) amounted to 90 µM.

Regarding `Nc1cccc2c(CCc3ccccc3)c(C(=O)NCP(=O)(O)O)[nH]c12` [Compound 3.1, 7-amino-3-(2-phenethyl)-2-(phosphonomethylaminocarbonyl)indole], the inhibition (as a rule, the share of the control response that was lost under treatment) at 500 µM in data set [1] (setting [3]) is 41.5%.

On to `Nc1cccc2cc(C(=O)NCP(=O)(O)O)[nH]c12` [Compound 1.1, 7-Amino-2-(phosphonomethylaminocarbonyl)indole], for which the IC50 in data set [2] (setting [4]) stood at 10 µM. Moreover, the “dose-dependent inhibition of hlFBPase (FIG. 2)” value in data set [2] is “dose-dependent inhibition”.

On to `Nc1cccn2c(-c3ccccc3)c(COCP(=O)(O)O)nc12` [Compound 11.5, 7-amino-9aza-3-phenyl-2-phosphonomethoxymethyl-indole], for which the IC50 at rat liver FBPase was 90 µM; in data set [2] (setting [4]) it was 10 µM. For the same molecule, in data set [1] (Rattus norvegicus, Hepatocyte, 250 μM, 1 hour), 250 µM produced 50% inhibition.

As for `CC(C)Cc1c(-c2ccc(P(=O)(O)O)o2)[nH]c2ccc(Cl)cc12` [Compound 10.1, 5-chloro-3-isobutyl-2-(2-(5-phosphono)furanyl)indole], the IC50 in data set [2] (setting [4]) is 2.5 µM.

`Nc1cccc2c(-c3ccccc3)c(C(=O)NCP(=O)(O)O)[nH]c12` [Compound 2.1, 7-amino-3-phenyl-2-(phosphonomethylaminocarbonyl)indole]: in data set [2], the “dose-dependent inhibition of hlFBPase (FIG. 2)” value is reported as “dose-dependent inhibition”.

As to `O=P(O)(O)c1ccc(-c2cc3ccccc3[nH]2)o1` [Compound 5.1, 2-(2-(5-phosphono)furanyl)indole], the values for the IC50 (on rat liver FBPase; on Mouse liver FBPase; in data set [2] (setting [4])) were more than 20 µM, more than 20 µM and 8.8 µM, respectively. Moreover, in data set [1] (setting [3]), the inhibition at 500 µM stood at 39.6%.

For the molecule `O=P(O)(O)c1ccc(-c2cn3cc(Cl)ccc3n2)o1` [Compound 14.2, 9-Aza-5-chloro-2-(2-(5-phosphono)furanyl)indole], the IC50 in data set [2] (setting [4]) is 4.5 µM.

Consider `COc1ccc2[nH]c(C(=O)NCP(=O)(O)O)cc2c1` [Compound 1.3, Disodium 5-methoxy-2-(phosphonomethylaminocarbonyl)indole], for which the inhibition at 500 µM in data set [1] (setting [3]) is 3.4%. The IC50 in data set [2] (setting [4]) amounted to 60.6 µM.

In the case of `CC(C)Cn1c(-c2ccc(P(=O)(O)O)o2)cc2ccccc21` [Compound 6.1, 1-isobutyl-2-(2-(5-phosphono)furanyl)indole], the IC50 is more than 20 µM against rat liver FBPase, more than 20 µM against Mouse liver FBPase and 10.7 µM in data set [2] (setting [4]). Besides, the “dose dependent inhibition of glucose production in rat hepatocytes (FIG. 3)” value in data set [1] is listed as “inhibit glucose production in a dose dependent manner”. 500 µM produced 64.4% inhibition in data set [1] (setting [3]).

On to `Nc1ncnc2c1ncn2[C@@H]1O[C@H](COP(=O)(O)O)[C@@H](O)[C@H]1O` [adenosine monophosphate (AMP), adenosine monophosphate, reference compound], for which, in data set [2] (under the reaction conditions of Example A, read-out: concentration required to inhibit half of the hlFBPase activity), the IC50 was found to be 1 µM.

In the case of `O=P(O)(O)c1ccc(-c2[nH]c3ccccc3c2-c2ccccc2)o1` [Compound 7.2, 3-phenyl-2-(2-(5-phosphono)furanyl)indole], the results for the IC50 (against rat liver FBPase; against Mouse liver FBPase; in data set [2] (setting [4])) were more than 20 µM, more than 20 µM and 8.5 µM, respectively.
